The text below walks through data of patent publication US10952999B2, “Inhibitor of cyclin-dependent kinase CDK9” (GENFLEET THERAPEUTICS (SHANGHAI) INC., priority 2017, dated 2021).

In one test the target is T1, CDK9/cyclin T1 (Homo sapiens, UniProt P50750).
T1 construct: purchased Invitrogen, USA
Kind of test: Enzyme assay for inhibition of CDK protein in vitro (Z-LYTE). It is filed as biochemical. Here is the method: (§1) Compounds 1 and 14 diluted in DMSO were mixed with detected CDK protein (Invitrogen, USA) respectively, incubated at room temperature for 30 minutes; and then mixed with Kinase/Z-LYTE™ Peptide Substrate Mixture (Invitrogen, USA) and 4×ATP. The mixed system was transferred to a 384-well white opaque plate to react for 1 hour at room temperature; 5 μL of Development Solution (Invitrogen, USA) was added to react at room temperature for 1 hour, and finally Stop Reagent (Invitrogen, USA) was added to terminate the reaction and MD SpectraMax I3× microplate reader (Molecular Devices, USA) was used to read fluorescence values.

Another test has as its target T2, CDK3/cyclin E1 (Homo sapiens, UniProt Q00526).
T2 construct: purchased Invitrogen, USA
The description is as above. It is filed as biochemical. Here is the method:
as §1

The next test has as its target T3, CDK8/cyclin C (Homo sapiens, UniProt P49336).
T3 construct: purchased Invitrogen, USA
Described as above. It is filed as biochemical. Here is the method: as §1

A further test addresses T4, CDK11(non-active) (Homo sapiens, UniProt Q9BWU1).
T4 construct: purchased Invitrogen, USA
The description is as above. It is filed as biochemical. Here is the method: as §1

Test [1] concerns acute myelocytic leukemia (AML) OCI-AML-3. Kind of test: Cancer cell growth, Cell Titer-Glo cell viability assay, 72 hours. The test is classed as cell-based. Conditions: Homo sapiens, OCI-AML-3; OCI-AML3, 72 hours. An excerpt:
(§2) In the examples, we used acute myelocytic leukemia (AML) OCI-AML-3, acute promyelocytic leukemia cell line NB-4, MDS-RAEB (myelodysplastic syndrome-excess blasts type) cell line SKM-1, human leukemia cell Nomo-1, acute myeloid leukemia cell line MOLM14, acute myeloid leukemia cell line MOLM13, acute myeloid leukemia cell line MV4-11, acute myeloid leukemia cell line HL-60, acute myeloid leukemia cell line OCI-AML-2, histiocytic lymphoma U-937, acute B cell leukemia cell line MEC-1, acute B cell leukemia cell line MEC-2, acute megakaryoblastic leukemia CMK, hamster lung cell CHL, hamster ovary cell CHO, human non-small cell lung cancer cell H1975, human non-small cell lung cancer cell H358, human small cell lung cancer cell H209, human lung adenocarcinoma cell H1395, human non-small cell lung cancer cell PC-9, human lung cancer cell H3122, human non-small cell lung cancer cell H2122, human non-small cell lung cancer cell H1915, human lung adenocarcinoma cell H1355, human non-small cell lung cancer cell HCC827, human breast cancer cell MDA-MB-231, human breast cancer cell MDA-MB-468, human breast cancer cell MCF-7, human breast cancer cell T47D, human breast cancer cell SK-Br-3, the above cells were purchased from ATCC.
(§3) Cell Titer-Glo® (Promega, USA) chemical self-luminescence cell viability assay kit was used to detect the number of viable cells by quantitatively measuring ATP in living cells, according to which to calculate GI50 and IC50.
(In general: ATP-based viability assays read luminescence as a measure of living cells.)

The subject of test [2] is human leukemia cell Nomo-1. The description is as above. It is filed as cell-based. The note with it: Homo sapiens; Nomo-1, 72 hours.
From the text: as §2, §3

For test [3], the system named is acute myeloid leukemia cell line OCI-AML-2. The test is described as above. The test is classed as cell-based. The note with it: Homo sapiens; OCI-AML2, 72 hours.
From the text: as §2, §3

Test [4] concerns acute B cell leukemia cell line MEC-2. The test is described as above. The test is classed as cell-based. The note with it: MEC2; MEC-2, 72 hours.
From the text: as §2, §3

Test [5] has as its system MDS-RAEB (myelodysplastic syndrome-excess blasts type) cell line SKM-1. The test is described as above. The test is classed as cell-based. The note with it: Homo sapiens; SKM-1, 72 hours.
From the text: as §2, §3

The test system of test [6] is acute myeloid leukemia cell line MOLM14. The test is described as above. The test is classed as cell-based. Conditions: Homo sapiens; MOLM-14, 72 hours.
From the text: as §2, §3

In test [7] the test system is histiocytic lymphoma U-937. Described as above. It is filed as cell-based. The note with it: Homo sapiens; U-937, 72 hours.
From the text: as §2, §3

Test [8] has as its system acute B cell leukemia cell line MEC-1. Described as above. It is filed as cell-based. Conditions: Homo sapiens, MEC1; MEC-1, 72 hours.
From the text: as §2, §3

Test [9] relates to acute myeloid leukemia cell line MV4-11. Described as above. It is filed as cell-based. Conditions: Homo sapiens; MV4-11, 72 hours.
From the text: as §2, §3

Test [10] relates to acute megakaryoblastic leukemia CMK. Described as above. It is filed as cell-based.
From the text: as §2, §3

In test [11] the test system is acute promyelocytic leukemia cell line NB-4. The description is as above. The test is classed as cell-based. The note with it: NB4, 72 hours.
From the text: as §2, §3

In another test the test system is hamster lung cell CHL. The test is described as above. It is filed as cell-based.
From the text: as §2, §3

For test [12], the system named is acute myeloid leukemia cell line HL-60. The description is as above. Conditions: Homo sapiens; HL-60, 72 hours. It is filed as cell-based.
From the text: as §2, §3

The test system of another test is hamster ovary cell CHO. The description is as above. The test is classed as cell-based.
From the text: as §2, §3

For test [13], the system named is acute myeloid leukemia cell line MOLM13. The test is described as above. It is filed as cell-based. The note with it: Homo sapiens; MOLM-13, 72 hours.
From the text: as §2, §3

T3 sequence (P49336 whole entry): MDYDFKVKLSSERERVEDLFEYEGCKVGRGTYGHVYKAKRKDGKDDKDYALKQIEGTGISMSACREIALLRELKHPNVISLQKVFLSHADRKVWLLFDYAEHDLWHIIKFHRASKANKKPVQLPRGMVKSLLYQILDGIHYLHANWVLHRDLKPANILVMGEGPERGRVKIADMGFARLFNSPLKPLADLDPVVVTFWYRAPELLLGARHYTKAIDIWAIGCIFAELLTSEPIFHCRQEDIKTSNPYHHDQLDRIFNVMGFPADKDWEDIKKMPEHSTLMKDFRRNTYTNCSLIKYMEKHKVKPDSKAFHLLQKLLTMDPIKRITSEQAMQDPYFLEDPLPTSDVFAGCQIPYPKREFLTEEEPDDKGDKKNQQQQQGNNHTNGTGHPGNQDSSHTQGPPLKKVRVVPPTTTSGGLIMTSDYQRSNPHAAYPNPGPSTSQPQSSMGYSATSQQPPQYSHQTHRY
T3 sequence (P24863 whole entry partner): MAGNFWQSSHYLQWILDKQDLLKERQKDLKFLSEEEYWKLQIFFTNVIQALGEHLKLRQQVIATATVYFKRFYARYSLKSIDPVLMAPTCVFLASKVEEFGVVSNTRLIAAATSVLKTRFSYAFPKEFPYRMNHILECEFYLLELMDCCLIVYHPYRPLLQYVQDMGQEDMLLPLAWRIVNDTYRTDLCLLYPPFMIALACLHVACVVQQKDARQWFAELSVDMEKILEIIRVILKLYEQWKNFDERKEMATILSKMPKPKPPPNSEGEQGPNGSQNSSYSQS
T2 sequence (Q00526 whole entry): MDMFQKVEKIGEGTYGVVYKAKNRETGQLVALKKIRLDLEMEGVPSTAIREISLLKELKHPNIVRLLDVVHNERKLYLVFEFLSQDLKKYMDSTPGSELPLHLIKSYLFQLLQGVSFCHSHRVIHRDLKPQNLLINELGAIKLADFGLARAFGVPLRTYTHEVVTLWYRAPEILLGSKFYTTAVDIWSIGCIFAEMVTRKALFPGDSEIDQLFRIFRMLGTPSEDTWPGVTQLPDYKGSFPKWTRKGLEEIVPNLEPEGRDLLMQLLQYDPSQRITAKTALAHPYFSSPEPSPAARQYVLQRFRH
T2 sequence (P24864 whole entry partner): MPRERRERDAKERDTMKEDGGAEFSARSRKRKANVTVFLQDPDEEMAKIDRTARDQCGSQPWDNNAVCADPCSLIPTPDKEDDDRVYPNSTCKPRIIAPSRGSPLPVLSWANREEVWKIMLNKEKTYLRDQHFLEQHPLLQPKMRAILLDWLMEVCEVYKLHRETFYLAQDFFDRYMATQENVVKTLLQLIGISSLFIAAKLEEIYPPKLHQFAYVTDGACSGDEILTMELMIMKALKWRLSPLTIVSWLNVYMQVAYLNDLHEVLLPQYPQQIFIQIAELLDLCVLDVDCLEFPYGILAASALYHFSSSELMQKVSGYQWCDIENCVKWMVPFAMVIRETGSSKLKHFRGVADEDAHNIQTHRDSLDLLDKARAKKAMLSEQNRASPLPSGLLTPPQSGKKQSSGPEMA
T4 sequence (Q9BWU1 whole entry): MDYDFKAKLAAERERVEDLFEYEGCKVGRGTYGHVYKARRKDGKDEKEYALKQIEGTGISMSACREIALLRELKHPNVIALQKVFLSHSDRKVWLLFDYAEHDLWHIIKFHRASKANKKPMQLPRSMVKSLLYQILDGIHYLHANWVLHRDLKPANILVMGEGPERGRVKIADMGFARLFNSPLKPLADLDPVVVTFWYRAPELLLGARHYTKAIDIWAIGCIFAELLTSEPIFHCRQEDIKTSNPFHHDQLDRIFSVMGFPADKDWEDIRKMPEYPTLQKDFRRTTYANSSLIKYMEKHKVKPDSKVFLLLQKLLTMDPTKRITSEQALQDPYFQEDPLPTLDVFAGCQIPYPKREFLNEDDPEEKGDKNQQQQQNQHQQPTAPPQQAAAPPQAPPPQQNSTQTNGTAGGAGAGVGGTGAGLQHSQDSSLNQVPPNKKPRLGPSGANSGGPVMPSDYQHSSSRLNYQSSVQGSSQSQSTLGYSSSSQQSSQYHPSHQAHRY
T1 sequence (P50750 whole entry): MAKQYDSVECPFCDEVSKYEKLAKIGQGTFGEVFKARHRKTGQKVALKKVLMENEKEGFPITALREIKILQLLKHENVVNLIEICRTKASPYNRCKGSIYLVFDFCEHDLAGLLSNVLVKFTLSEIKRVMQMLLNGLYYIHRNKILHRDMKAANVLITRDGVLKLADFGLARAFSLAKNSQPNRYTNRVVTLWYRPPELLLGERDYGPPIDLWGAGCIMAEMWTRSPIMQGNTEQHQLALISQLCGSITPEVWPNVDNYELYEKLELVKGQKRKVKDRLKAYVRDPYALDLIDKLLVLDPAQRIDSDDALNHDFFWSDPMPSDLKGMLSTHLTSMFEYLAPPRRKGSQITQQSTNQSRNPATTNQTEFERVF
T1 sequence (O60563 whole entry partner): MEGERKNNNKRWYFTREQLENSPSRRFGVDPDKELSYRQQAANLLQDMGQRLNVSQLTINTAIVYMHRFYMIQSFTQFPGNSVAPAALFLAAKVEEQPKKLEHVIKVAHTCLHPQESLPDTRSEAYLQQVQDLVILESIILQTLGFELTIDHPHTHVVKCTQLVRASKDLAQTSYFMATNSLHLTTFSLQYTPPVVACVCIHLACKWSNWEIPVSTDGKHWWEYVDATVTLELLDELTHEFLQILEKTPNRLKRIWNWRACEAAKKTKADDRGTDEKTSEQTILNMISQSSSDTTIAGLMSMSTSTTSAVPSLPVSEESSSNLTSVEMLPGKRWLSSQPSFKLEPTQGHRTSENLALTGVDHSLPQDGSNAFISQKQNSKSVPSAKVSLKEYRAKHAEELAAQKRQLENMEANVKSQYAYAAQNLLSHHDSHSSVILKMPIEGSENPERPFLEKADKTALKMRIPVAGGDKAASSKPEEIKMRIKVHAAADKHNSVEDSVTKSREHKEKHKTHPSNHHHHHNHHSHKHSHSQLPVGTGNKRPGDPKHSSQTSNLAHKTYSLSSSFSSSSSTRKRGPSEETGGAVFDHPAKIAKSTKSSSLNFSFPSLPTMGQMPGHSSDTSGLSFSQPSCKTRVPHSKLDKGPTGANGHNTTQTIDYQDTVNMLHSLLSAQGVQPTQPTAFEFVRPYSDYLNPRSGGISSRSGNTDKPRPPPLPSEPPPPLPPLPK

As usually defined, the IC50 is the concentration needed to halve the response being measured. Low values mean greater potency in that assay, high ones weaker potency in that assay. One may read the GI50 as the concentration at which growth is held to half of that of the control. Turning to `COCCN[C@H]1CC[C@H](Nc2cc(-c3csc(NCC4(C#N)CCOCC4)n3)c(Cl)cn2)CC1` [Compound 14, 4-((4-(5-chloro-2-(((1r,4r)-4-((2-methoxyethyl)amino)cyclohexyl)amino)pyridin-4-yl)thiazol-2-ylamino)methyl)tetrahydro-2H-pyran-4-carbonitrile], the 50% inhibitory concentration (IC50) at CDK9/cyclin T1 was 1.27 nM; against CDK3/cyclin E1 it was above 10000 nM; against CDK8/cyclin C, above 10000 nM; against CDK11(non-active) it was above 10000 nM. Also, the concentration for 50% growth inhibition (GI50) was 12 nM in test [1]; 110 nM in test [2]; 6.6 nM in test [3]; 23 nM in [4]; 2 nM in [5]; 1.1 nM in test [6]. For the same compound, the 50% growth inhibitory concentration (GI50) stood at 11 nM in [7]; 37 nM in test [8]; 41 nM in test [9]; 36 nM in test [10]; 7.9 nM in test [11]; 1200 nM with hamster lung cell CHL (CHL, 72 hours). Further, the GI50 in test [12] worked out at 56 nM; in the test on hamster ovary cell CHO (CHO, 72 hours), 1100 nM; in test [13], 12 nM. In the test with hamster lung cell CHL (CHL cells), the “inhibitory effect on normal cell CHL (in words)” value was “no inhibitory effect”. In the test with hamster ovary cell CHO (CHO cells), the “inhibitory effect on normal cell CHO (in words)” value was “no inhibitory effect”.
